Results as given in ChEMBL document CHEMBL1140860, “Synthesis and evaluation of dihydroartemisinin and dihydroartemisitene acetal dimers showing anticancer and antiprotozoal activity” (Bioorg Med Chem, 2009).

Columns and labels:
HOP-92 = experiment: Growth inhibition of human HOP92 cells after 48 hrs by sulforhodamine B assay; format: functional; conditions: HOP-92, 48 h
SK-MEL-28 = experiment: Growth inhibition of human SK-MEL-28 cells after 48 hrs by sulforhodamine B assay; format: functional; conditions: SK-MEL-28, 48 h
U-251 = experiment: Growth inhibition of human U251 cells after 48 hrs by sulforhodamine B assay; format: functional; conditions: U-251, 48 h
CAKI-1 = experiment: Growth inhibition of human Caki1 cells after 48 hrs by sulforhodamine B assay; format: functional; conditions: CAKI-1, 48 h
IGROV-1 = experiment: Growth inhibition of human IGROV1 cells after 48 hrs by sulforhodamine B assay; format: functional; conditions: IGROV-1, 48 h
TK-10 = experiment: Growth inhibition of human TK10 cells after 48 hrs by sulforhodamine B assay; format: functional; conditions: TK-10, 48 h
SN12C = experiment: Growth inhibition of human SN12C cells after 48 hrs by sulforhodamine B assay; format: functional
UACC-62 = experiment: Growth inhibition of human UACC62 cells after 48 hrs by sulforhodamine B assay; format: functional; conditions: UACC-62, 48 h
HT-29 = experiment: Growth inhibition of human HT-29 cells after 48 hrs by sulforhodamine B assay; format: functional; conditions: HT-29, 48 h
ACHN = experiment: Growth inhibition of human ACHN cells after 48 hrs by sulforhodamine B assay; format: functional
HOP-62 = experiment: Growth inhibition of human HOP62 cells after 48 hrs by sulforhodamine B assay; format: functional; conditions: HOP-62, 48 h
BT-549 = experiment: Growth inhibition of human BT549 cells after 48 hrs by sulforhodamine B assay; format: functional; conditions: BT-549, 48 h
EKVX = experiment: Growth inhibition of human EKVX cells after 48 hrs by sulforhodamine B assay; format: functional
CCRF-CEM = experiment: Growth inhibition of human CCRF-CEM cells after 48 hrs by sulforhodamine B assay; format: functional
OVCAR-3 = experiment: Growth inhibition of human OVCAR-3 cells after 48 hrs by sulforhodamine B assay; format: functional; conditions: OVCAR-3, 48 h
MCF7 = experiment: Growth inhibition of human MCF7 cells after 48 hrs by sulforhodamine B assay; format: functional; conditions: MCF7, 48 h
COLO 205 = experiment: Growth inhibition of human COLO205 cells after 48 hrs by sulforhodamine B assay; format: functional; conditions: COLO 205, 48 h
HCT-116 = experiment: Growth inhibition of human HCT116 cells after 48 hrs by sulforhodamine B assay; format: functional; conditions: HCT-116, 48 h
K562 = experiment: Growth inhibition of human K562 cells after 48 hrs by sulforhodamine B assay; format: functional; conditions: K562, 48 h
M14 = experiment: Growth inhibition of human M14 cells after 48 hrs by sulforhodamine B assay; format: functional; conditions: M14, 48 h
UO-31 = experiment: Growth inhibition of human UO31 cells after 48 hrs by sulforhodamine B assay; format: functional; conditions: UO-31, 48 h
KM12 = experiment: Growth inhibition of human KM12 cells after 48 hrs by sulforhodamine B assay; format: functional; conditions: KM12, 48 h
[1] = Growth inhibition of human Hs 578T cells after 48 hrs by sulforhodamine B assay; format: functional
A549 = experiment: Growth inhibition of human A549 cells after 48 hrs by sulforhodamine B assay; format: functional; conditions: A549, 48 h
NCI-H226 = experiment: Growth inhibition of human NCI-H226 cells after 48 hrs by sulforhodamine B assay; format: functional; conditions: NCI-H226, 48 h
[2] = Selectivity index, ratio of TC50 for african green monkey (Cercopithecus aethiops) Vero cells to IC50 for chloroquine-sensitive Plasmodium falciparum D6; format: toxicity, cell-based
NCI-H460 = experiment: Growth inhibition of human NCI-H460 cells after 48 hrs by sulforhodamine B assay; format: functional; conditions: NCI-H460, 48 h
[3] = Growth inhibition of human […] cells after 48 hrs by sulforhodamine B assay; format: functional
LOX IMVI = experiment: Growth inhibition of human LOXIMVI cells after 48 hrs by sulforhodamine B assay; format: functional
[4] = Cytotoxicity against african green monkey Vero cells after 48 hrs by neutral red assay; format: cell-based; conditions: chlorocebus sabaeus, read-out: TC50
NCI-H522 = experiment: Growth inhibition of human NCI-H522 cells after 48 hrs by sulforhodamine B assay; format: functional; conditions: NCI-H522, 48 h
MDA-MB-435 = experiment: Growth inhibition of human MDA-MB-435 cells after 48 hrs by sulforhodamine B assay; format: functional; conditions: MDA-MB-435, 48 h
SNB-75 = experiment: Growth inhibition of human SNB75 cells after 48 hrs by sulforhodamine B assay; format: functional; conditions: SNB-75, 48 h
HCC 2998 = experiment: Growth inhibition of human HCC2998 cells after 48 hrs by sulforhodamine B assay; format: functional; conditions: HCC 2998, 48 h
OVCAR-8 = experiment: Growth inhibition of human OVCAR8 cells after 48 hrs by sulforhodamine B assay; format: functional; conditions: OVCAR-8, 48 h
SK-MEL-5 = experiment: Growth inhibition of human SK-MEL-5 cells after 48 hrs by sulforhodamine B assay; format: functional; conditions: SK-MEL-5, 48 h
SNB-19 = experiment: Growth inhibition of human SNB19 cells after 48 hrs by sulforhodamine B assay; format: functional; conditions: SNB-19, 48 h
NCI-H322M = experiment: Growth inhibition of human NCI-H322M cells after 48 hrs by sulforhodamine B assay; format: functional
MDA-MB-231 = experiment: Growth inhibition of human MDA-MB-231 cells after 48 hrs by sulforhodamine B assay; format: functional; conditions: MDA-MB-231, 48 h
NCI-H23 = experiment: Growth inhibition of human NCI-H23 cells after 48 hrs by sulforhodamine B assay; format: functional; conditions: NCI-H23, 48 h
SR = experiment: Growth inhibition of human SR cells after 48 hrs by sulforhodamine B assay; format: functional
HL-60 = experiment: Growth inhibition of human HL-60(TB) cells after 48 hrs by sulforhodamine B assay; format: functional; conditions: HL-60, 48 h
A498 = experiment: Growth inhibition of human A498 cells after 48 hrs by sulforhodamine B assay; format: functional; conditions: A498, 48 h
T47D = experiment: Growth inhibition of human T47D cells after 48 hrs by sulforhodamine B assay; format: functional
786-0 = experiment: Growth inhibition of human 786-0 cells after 48 hrs by sulforhodamine B assay; format: functional; conditions: 786-0, 48 h
OVCAR-5 = experiment: Growth inhibition of human OVCAR5 cells after 48 hrs by sulforhodamine B assay; format: functional; conditions: OVCAR-5, 48 h
PC-3 = experiment: Growth inhibition of human PC3 cells after 48 hrs by sulforhodamine B assay; format: functional; conditions: PC-3, 48 h
Plasmodium falciparum [5] = experiment: Antimalarial activity after 72 hrs against chloroquine-resistant Plasmodium falciparum W2 infected erythrocytes by LDH assay; format: functional, organism-based; conditions: W2, 72 h
HCT-15 = experiment: Growth inhibition of human HCT15 cells after 48 hrs by sulforhodamine B assay; format: functional; conditions: HCT-15, 48 h
NCI/ADR-RES = experiment: Growth inhibition of human NCI/ADR-RES cells after 48 hrs by sulforhodamine B assay; format: functional
Plasmodium falciparum [6] = experiment: Antimalarial activity after 72 hrs against chloroquine-sensitive Plasmodium falciparum D6 infected in erythrocytes by LDH assay; format: functional, organism-based; conditions: D6, 72 h

Compound: C[C@H]1[C@@H](O[C@H]2CC[C@@H](O[C@H]3O[C@@H]4O[C@@]5(C)CC[C@H]6[C@H](C)CC[C@@H]([C@H]3C)[C@@]46OO5)CC2)O[C@@H]2O[C@@]3(C)CC[C@H]4[C@H](C)CC[C@@H]1[C@@]24OO3
- GI50 (HOP-92): 17 nM
- GI50 (SK-MEL-28): 0.085 µM
- GI50 (U-251): 19 nM
- GI50 (CAKI-1): 37 nM
- GI50 (IGROV-1): 6.75 µM
- GI50 (TK-10): 29 nM
- GI50 (SN12C): 25 nM
- GI50 (UACC-62): 22 nM
- GI50 (HT-29): 26 nM
- GI50 (ACHN): 27 nM
- GI50 (HOP-62): 12.3 µM
- GI50 (BT-549): 42 nM
- GI50 (EKVX): 24 nM
- GI50 (CCRF-CEM): < 5 nM
- GI50 (OVCAR-3): 15 nM
- GI50 (MCF7): 16 nM
- GI50 (COLO 205): 7 nM
- GI50 (HCT-116): 16 nM
- GI50 (K562): 14 nM
- GI50 (M14): 27 nM
- GI50 (UO-31): 18 nM
- GI50 (KM12): 12 nM
- GI50 [1]: 49 nM
- GI50 (A549): 20 nM
- GI50 (NCI-H226): 347 nM
- selectivity ratio [2]: > 1590
- GI50 (NCI-H460): 17 nM
- GI50 [3]: < 5 nM
- GI50 (LOX IMVI): 17 nM
- CC50 at 48 h [4]: > 7.34 mM
- GI50 (NCI-H522): 21 nM
- GI50 (MDA-MB-435): 28 nM
- GI50 (SNB-75): 30 nM
- GI50 (HCC 2998): 18 nM
- GI50 (OVCAR-8): 19 nM
- GI50 (SK-MEL-5): 17 nM
- GI50 (SNB-19): 99 nM
- GI50 (NCI-H322M): 16.6 µM
- GI50 (MDA-MB-231): 92 nM
- GI50 (NCI-H23): 22 nM
- GI50 (SR): 14 nM
- GI50 (HL-60): 17 nM
- GI50 (A498): 40 nM
- GI50 (T47D): < 5 nM
- GI50 (786-0): 31 nM
- GI50 (OVCAR-5): 152 nM
- GI50 (PC-3): 11 nM
- IC50 (Plasmodium falciparum [5]): 8 µM
- GI50 (HCT-15): 14 nM
- GI50 (NCI/ADR-RES): 77 nM
- IC50 (Plasmodium falciparum [6]): 4.6 µM

Compound: C[C@H]1[C@@H](O[C@H]2CC[C@H](O[C@H]3O[C@@H]4O[C@@]5(C)CC[C@H]6[C@H](C)CC[C@@H]([C@H]3C)[C@@]46OO5)CC2)O[C@@H]2O[C@@]3(C)CC[C@H]4[C@H](C)CC[C@@H]1[C@@]24OO3
- GI50 (HOP-92): 21 nM
- GI50 (SK-MEL-28): 98.8 µM
- GI50 (U-251): 16 nM
- GI50 (CAKI-1): 326 nM
- GI50 (IGROV-1): 0.055 µM
- GI50 (TK-10): 119 nM
- GI50 (SN12C): 97 nM
- GI50 (UACC-62): 45 nM
- GI50 (HT-29): 11 nM
- GI50 (ACHN): 42 nM
- GI50 (HOP-62): 0.065 µM
- GI50 (BT-549): 21 nM
- GI50 (EKVX): 28 nM
- GI50 (CCRF-CEM): < 10 nM
- GI50 (OVCAR-3): 67 nM
- GI50 (MCF7): 42 nM
- GI50 (COLO 205): < 10 nM
- GI50 (HCT-116): < 10 nM
- GI50 (K562): 41 nM
- GI50 (M14): 61 nM
- GI50 (UO-31): 123 nM
- GI50 (KM12): 11 nM
- GI50 [1]: 63 nM
- GI50 (A549): 18.8 nM
- GI50 (NCI-H226): 25 nM
- selectivity ratio [2]: 1360
- GI50 (NCI-H460): 28 nM
- GI50 [3]: < 10 nM
- GI50 (LOX IMVI): 13 nM
- CC50 at 48 h [4]: > 7.34 mM
- GI50 (NCI-H522): 36 nM
- GI50 (MDA-MB-435): 70 nM
- GI50 (SNB-75): 202 nM
- GI50 (HCC 2998): 18 nM
- GI50 (OVCAR-8): 57 nM
- GI50 (SK-MEL-5): 49 nM
- GI50 (SNB-19): 372 nM
- GI50 (NCI-H322M): 0.672 µM
- GI50 (MDA-MB-231): 520 nM
- GI50 (NCI-H23): 43 nM
- GI50 (SR): 306 nM
- GI50 (HL-60): 32 nM
- GI50 (A498): 376 nM
- GI50 (T47D): < 10 nM
- GI50 (786-0): 27 nM
- GI50 (OVCAR-5): 42 nM
- GI50 (PC-3): < 10 nM
- IC50 (Plasmodium falciparum [5]): 13.3 µM
- GI50 (HCT-15): < 10 nM
- GI50 (NCI/ADR-RES): 130 nM
- IC50 (Plasmodium falciparum [6]): 5.4 µM
